Tests used:
[1] = tested on: Human T cell lymphoma (MOLT-4) cells; assay: In vitro drug pretreatment of encapsulated cells, then growth in the peritoneal cavity of mice; type: in vivo; conditions: for No. of tumor cells per capsule: then 7 days i.p. in C57BL/6 mice
Protocol: The encapsulated tumors are preferably incubated at 37° C in medium for 1 to 2 hours. A 25 percent (v/v) suspension can then be prepared (preferably without bovine serum). The suspension can be inoculated in the peritoneal cavity of the host animal (i.e., with a 16 gauge needle).
(§1) In the experiments that follow, the drugs and other agents tested were administered to the host animal by injection at the various times called for in the protocol being tested. At various periods after treatment, the mice were killed by cervical dislocation. The peritoneal cavity of each mouse was washed with PBS or medium and floating microcapsules were aspirated using a large bore plastic Pasteur pipette. Microcapsules were transferred to 15 ml tubes and washed 3 to 4 times with PBS to remove host peritoneal cells. The washed microcapsules were aspirated into 1 ml serological pipettes, allowed to sediment, and the volume of packed microcapsules was determined. Microcapsules were then transferred to a glas dounce homogenizer (7 ml volume) and disrupted with 3 strokes of an A-tolerance plumger. Cells suspensions were filtered through nylon mesh to remove the disrupted membranes. The suspensions containing tumor cells were centrifuged and the pellet was resuspended in 0.25 to 0.5 ml of complete medium. After mixing equal volumes of cell suspension and trypan blue, viable cell counts were determined using a hemocytometer.
(§2) The number of tumor cells per 1 ml of packed microcapsules was determined as follows: a = ? where b = total number of tumor cells in the suspension, and c = total volume of microcapsules used for the preparation of this suspension.
(§3) By comparing the number of tumor cells in 1 ml of microcapsules derived from non-treated and drug-treated mice, the percent inhibition of tumor cell growth was calculated: [formula] where ac = number of tumor cells from the non-treated control microcapsules, and ae = number of tumor cells from the drug treated microcapsules.
Human T cell lymphoma (MOLT-4) cells were encapsulated according to the procedures described above and incubated in vitro in RPMI I640 medium supplemented with 10 percent fetal calf serum, glutamine and antibiotics for one hour of 37°C. During incubation they were exposed to various concentrations of 1,3-B (2-chloroethyl)-1-nitrosourea (BCNU), 5-fluorouracil (5-FU) and adriamycin. The microcapsules were then washed and implanted into the peritoneal cavity (i.p.) of C57BL/6 mice (Animal Production Area NCI-Frederick Cancer Research Facility) using #18-14 needles. After seven days the mice were sacrificed and their peritoneal cavities were washed with PBS and aspirated to collect the microcapsules in a Pasteur pipette. The microcapsules were washed several times from the host peritoneal cells. The microcapsules from the individual mice were counted by transferring them into wells of a 96 well microplate. Using an inverted microscope, the numbers of microcapsules in each well were counted. Each well was washed out and microcapsules were transferred into the glass homogenizer.
Microcapsules were then disrupted, and the suspension was filtered, centrifugated and reconstituted with PBS. The concentration and total number of cells were counted using a hemocytometer.

[2] = tested on: MOLT-4 lymphoma cells; assay: In vivo inhibition of encapsulated Molt-4 lymphoma growth in C57BL/6 mice; set-up: species or system human
Protocol: as §1, §2, §3
MOLT-4 lymphoma cells were also used in an in vivo assay. As before, the MOLT-4 cells were encapsulated and transplanted i.p. into C57BL/6 mice. On day 1 following the transplantation of the encapsulated cells, the mice were treated i.v. intravenous (i.v.) with BCNU, adriamycin or cyclophosphamide (CY). This approach allowed the testing of cyclophosphamide (CY) which is inefficient in vitro because it must be metabolized to obtain an active cytotoxic derivative. Ten days after transplantation, the encapsulated cells were retrieved and the tumor cells contained therein were counted. […]

[3] = tested on: human colon adenocarcinoma (HT-29) cells; assay: In vivo growth of encapsulated HT-29 cells in C57BL/6 mice; conditions: for inhibition at 20 mg/kg: Mus musculus; for No. of cells per capsule / Total No. of tumor cells: 4 days
Protocol: as §1, §2, §3
A second human cancer cell line was also used to further analyze in vivo effects of different drugs on the growth of tumors. Encapsulated human colon adenocarcinoma (HT-29) cells were again transplanted into C57BL/6 mice and various drugs were administered after 3 days either by intravenous or by intraperitoneal injection. Animals were sacrificed after 4 days and number of cells per capsule were counted to calculate inhibition rates for the various treatment procedures. […] In fact, 5-FU is a preferred chemotherapeutic agent for patients with gastrointestinal malignancies.

[4] = tested on: human Melanoma LOX cells; assay: In vivo susceptibility of encapsulated LOX melanoma cells in nude mice
Protocol: as §1, §2, §3
In this series of experiments, cells of a fourth human cancer type, Melanoma LOX cells, were used. LOX cells have recently been proposed as the model for experimental treatment at the NCI Development Therapeutics Program. Following i.p. inoculation of the suspension of LOX Melanoma cells into nude mice, various drugs were administered i.v. and survival of the treated mice was determined (Schoemaker et al., Proceeding American Association for Cancer Research, 26, 1302, 1985) (mice transplanted with the non-encapsulated tumor cells were considered tumor-free if they survived during 3 months of observation). In parallel experiments encapsulated LOX Melanoma cells were transferred into nude mice and drugs were inoculated i.v. 1, 5 and 9 days at the dose and schedule utilized by the Dr. Shoemaker's procedure.

[5] = tested on: Original P388 cells; assay: In vivo growth of encapsulated original P388 lymphoma cells in nude mice
Protocol: as §1, §2, §3
Since drug-resistance is one of the most important causes of failure in chemotherapy, it is crucial that a predictive assay be able to distinguish between effective and non-effective drugs for particular tumors. […] One day later the mice received by i.v. administration Adriamycin (6 mg/kg), Vinblastin (1 mg/kg) or Cyclophosphamide (100 mg/kg). Five days after administration some of the mice were sacrificed, the microcapsules were recovered and the numbers of tumor cells inside the capsules were determined. The remaining mice received a second administration and the microcapsules were recovered from the remaining mice 3 days afterwards. The results are shown in Table 7 and correlate well with the known characteristics of P388 cell line and its variant.

[6] = tested on: LOX Melanoma cells; conditions: i.v.; Adriamycin 6, BCNU 20, CY 100, 5-Fu 60 mg/kg; survival during 3 months of observation; nude mice; cited from earlier work
[7] = i.v. on day 1, Adriamycin 10 mg/kg, BCNU 100 mg/kg, CY 200 mg/kg, capsules retrieved ten days after transplantation
[8] = i.p. 3 days after transplantation, 5-Fu 150 mg/kg, CY 250 mg/kg, Adriamycin 20 mg/kg
[9] = i.v. 20 mg/kg 3 days after transplantation
[10] = 5 + 3 days after treatment (3 days after second administration), Adriamycin 6, Vinblastin 1, Cyclophosphamide 100 mg/kg i.v.
[11] = 5 days after treatment, i.v. one day after inoculation, Adriamycin 6, Vinblastin 1, Cyclophosphamide 100 mg/kg

COc1cccc2c1C(=O)c1c(O)c3c(c(O)c1C2=O)C[C@@](O)(C(=O)CO)C[C@@H]3O[C@H]1C[C@H](N)[C@H](O)[C@H](C)O1 [Adriamycin]
No. of tumor cells per capsule ([1]; 2.5 µg/ml in vitro for one hour): 2 x 10^3
No. of tumor cells per capsule ([1]; 10 µg/ml in vitro for one hour): 10
inhibition at 2.5 µg/mL ([1]; Mus musculus, MOLT-4, ip): 60%
inhibition at 10 µg/mL ([1]; Mus musculus, MOLT-4, ip): 100%
inhibition at 10 mg/kg ([2]; Mus musculus, MOLT-4, iv, i.v. on day 1, Adriamycin 10 mg/kg, BCNU 100 mg/kg, CY 200 mg/kg, capsules retrieved ten days after transplantation): 91.3%
reduction of the number of viable tumor cells in the capsules (in words) ([2]; i.v. on day 1, ten days after transplantation): more effective than BCNU
No. of cells per capsule [2, 7]: 237
Total No. of tumor cells [2, 7]: 8 x 10^4
inhibition at 20 mg/kg ([3]; HT-29, ip): 45%
inhibition at 20 mg/kg ([3]; HT-29, iv): 50%
No. of cells per capsule [3, 8]: 1.1 x 10^4
Total No. of tumor cells [3, 8]: 5.8 x 10^5
No. of cells per capsule [3, 9]: 1 x 10^4
Total No. of tumor cells [3, 9]: 1.2 x 10^6
sensitivity of encapsulated LOX cells to the treatment (in words) ([4]; i.v. days 1, 5, 9): most sensitive
No. of viable tumor cells per 1 ml. of capsules ([4]; i.v. days 1, 5, 9, Adriamycin 6, BCNU 20, CY 100, 5-Fu 60 mg/kg): 6 x 10^5
% Inhibition [5, 10]: 92%
No. cells/ml [5, 10]: 4 x 10^6
% Inhibition [5, 11]: 64%
No. cells/ml [5, 11]: 8 x 10^6
% survived mice transplanted with nonencapsulated tumor cells [6]: 33%
